The text below walks through data of patent US20210292843A1, “TREATMENT OF DISEASES ASSOCIATED WITH ACTIVATED IRAK” (CHILDREN'S HOSPITAL MEDICAL CENTER, priority 2016, published 2021).

What all share (assay type): cell-based, human
For assay [1], the system named is phospho-IRAK1, phospho-pIKK, and phospho-p65. The experiment in a line: Immunoblotting of innate immune signaling after IRAK1/4 inhibitor treatment. Conditions: S34F-U2AF1 K562 cells; IRAK1/4 inhibitor for 1 hour and 2 hours; immunoblot (FIG. 13A). As to the method:
Total protein lysates were obtained from cells by lysing the samples in cold RIPA buffer (50 mM Tris-HCl, 150 mM NaCl, 1 mM EDTA, 1% Triton X-100 and 0.1% SDS), in the presence of PMSF, sodium orthovanadate, protease and phosphatase inhibitors. Protein concentration was evaluated by a BCA assay (32106, Pierce, Rockford, Ill.). The bound proteins were separated by SDS-polyacrylamide gel electrophoresis, transferred to nitrocellulose membranes, and analyzed by immunoblotting. Western blot analysis was performed with the following antibodies: IRAK4 C-term (ab5985; Abcam, Cambridge, UK), IRAK N-term (4363; Cell Signaling Technology), GAPDH (5174; Cell Signaling Technology), Flag (F3165; Sigma, St. Louis, Mo.), IRAK1 (sc-7883; Santa Cruz, Dallas, Tex.), phospho-IRAK1 (T209) (A1074; AssaybioTech, Sunnyvale, Calif.), U2AF1 (ab86305; Abeam), IKKβ (2370; Cell Signaling Technology), phospho-IKKα/β (2697; Cell Signaling Technology), p38 MAPK (9212; Cell Signaling Technology), phopho-p38 MAPK (4631; Cell Signaling Technology), ERK (4695; Cell Signaling Technology), phospho-ERK (4377; Cell Signaling Technology), p65 (8242; Cell Signaling Technology) and phospho-p65 (3033; Cell Signaling Technology).
Doxycycline-inducible FLAG-tagged WT U2AF1 or FLAG-tagged mutant U2AF1(S34F) lentiviral expression plasmids have been previously described, and lentivirus was generated in 293T cells with the packaging plasmids pMD-G, pMD-Lg and REV. Concentrated virus (multiplicity of infection (MOI) of 3 for K562, MOI of 5 for OCI-AML3) was used to transduce K562 cells (ATCC, CCL243) or OCI-AML3 (DSMZ, ACC 582). […]
(§1) It was then investigated in whether or not there was a therapeutic opportunity in a subset of patients with increased IRAK4-Long expression, since expression of IRAK4-Long is associated with poor AML patient outcome (as described in Example 4, above). […] K562 WT- and S34F-U2AF1 were treated with DMSO or 10 uM IRAK1/4 inhibitor for 7 days, and cell viability was monitored by trypan blue exclusion. […]
(§2) Viability was measured by Trypan Blue staining. […] Colonies were counted after 7 days.
(Immunoblotting shows a protein as a band on a membrane.)

The subject of assay [2] is K562 S34F-U2AF1 cells. In words: Growth curve, cell viability by trypan blue exclusion. Conditions: 10 uM inhibitor vs DMSO, S34F-U2AF1 cells (FIG. 13B).
Description: (§3) Doxycycline-inducible FLAG-tagged WT U2AF1 or FLAG-tagged mutant U2AF1(S34F) lentiviral expression plasmids have been previously described, and lentivirus was generated in 293T cells with the packaging plasmids pMD-G, pMD-Lg and REV. Concentrated virus (multiplicity of infection (MOI) of 3 for K562, MOI of 5 for OCI-AML3) was used to transduce K562 cells (ATCC, CCL243) or OCI-AML3 (DSMZ, ACC 582). Transduced cells (marked by green fluorescent protein) were isolated by flow cytometry cell sorting. Expression of mutant or WT U2AF1 was induced using the indicated concentrations of doxycycline hyclate (Sigma) in water. (Shirai C, et al., 2017)
(§4) Trypan blue exclusion was measured using an automated cell counter (BioRad, Hercules, Calif., TC10). Cells were replenished with fresh media, doxycycline and drug every fifth day.
as §1, §2

Another assay concerns K562 WT-U2AF1 cells. The assay is described as above. The following applies: 10 uM inhibitor vs DMSO, 7 days, WT-U2AF1 cells (FIG. 13B).
Description: as §3, §4, §1, §2

In assay [3] the test system is K562 S34F-U2AF1 cells. In words: Clonogenic progenitor assay in methylcellulose. The following applies: 10 uM inhibitor, colonies counted after 7 days, S34F-U2AF1 compared to WT-U2AF1 cells (FIG. 13C).
Description: as §3
Clonogenic progenitor frequencies were determined by plating 1×10^3 K562 cells/ml in methylcellulose (Methocult H4236; Stem Cell Technologies). Colonies were scored after 7 days.
as §1, §2

As to `O=C(Nc1nc2ccccc2n1CCN1CCOCC1)c1cccc([N+](=O)[O-])c1` [IRAK1/4 inhibitor], in assay [1], the phospho-IRAK1 level entry is “returned to normal”, the phospho-p65 level result is listed as “returned to normal” and the phospho-pIKK level entry is “returned to normal”. Moreover, the “cell viability / survival over 7 days” value in the assay with K562 S34F-U2AF1 cells [2] is recorded as “significantly reduced survival”. Also, the “decrease in proliferation and viability” value with K562 WT-U2AF1 cells is reported as “not seen”. Further, the “colonies in methylcellulose (leukemic progenitor function)” value in the assay on K562 S34F-U2AF1 cells [3] was “significantly fewer colonies”.
